Legend:
[1] = system: U87MG pLVX-IDH2 R140Q-neo cells; test: U87MG pLVX-IDH2 R140Q-neo cell based assay, 2-HG by LC-MS; conditions: Homo sapiens, U-87 MG
[2] = biological target: IDH1-R132H homodimer enzyme (Homo sapiens (Human), UniProt O75874, R132H); test: In vitro assay IDH1-R132H homodimer, NADPH depletion assay with NADPH/NADP preincubation; format: biochemical; conditions: 5 μM NADPH and 37.5 μM NADP
Experimental: The following describes the experimental procedures that can be used to obtain data on columns 3 and 5 of Table 5.
A test compound is prepared as 10 mM stock in DMSO and diluted to 50× final concentration in DMSO, for a 50 μl reaction mixture. IDH enzyme activity converting alpha-ketoglutarate to 2-hydroxyglutaric acid is measured using a NADPH depletion assay. In the assay the remaining cofactor is measured at the end of the reaction with the addition of a catalytic excess of diaphorase and resazurin, to generate a fluorescent signal in proportion to the amount of NADPH remaining. […] The reaction is started with the addition of 10 μl of Substrate Mix ([…], 5 mM alpha-ketoglutarate, in Assay Buffer) and the mixture is incubated for 60 minutes at room temperature.

[3] = biological target: IDH1 wt/IDH1 R132H heterodimer (Homo sapiens (Human), UniProt O75874, R132H); test: In vitro assay for IDH1m R132H inhibitors, IDH1 wt/IDH1 R132H heterodimer, NADPH depletion (diaphorase/resazurin); format: biochemical; conditions: IDH1 wt/R132H heterodimer, NADPH/NADP, not saturated; read-out: IDH1 wt/R132H NADPH/NADP IC50 not saturated
Sequence of IDH1 wt/IDH1 R132H heterodimer (O75874 whole entry R132H): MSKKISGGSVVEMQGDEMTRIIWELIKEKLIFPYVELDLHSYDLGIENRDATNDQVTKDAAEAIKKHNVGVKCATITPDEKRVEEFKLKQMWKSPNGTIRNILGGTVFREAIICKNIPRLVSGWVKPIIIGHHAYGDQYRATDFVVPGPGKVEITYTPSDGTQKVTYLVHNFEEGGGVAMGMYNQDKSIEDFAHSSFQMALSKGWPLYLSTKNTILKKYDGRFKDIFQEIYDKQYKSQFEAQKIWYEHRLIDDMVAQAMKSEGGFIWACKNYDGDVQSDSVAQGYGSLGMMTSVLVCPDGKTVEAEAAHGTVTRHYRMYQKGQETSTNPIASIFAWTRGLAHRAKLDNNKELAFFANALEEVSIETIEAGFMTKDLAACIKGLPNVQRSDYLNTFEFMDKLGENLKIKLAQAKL
Sequence of IDH1 wt/IDH1 R132H heterodimer (O75874 whole entry, stated change not applied): as the sequence (O75874 whole entry R132H) above, with H132R counted along it
Method in brief: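 Read-out is NADPH left after α-KG reduction to 2-HG, measured via resorufin fluorescence after 5 min diaphorase/resazurin step at 25° C. Enzyme is sf9-expressed IDH1wt-his/IDH1R132H-flag heterodimer, pre-incubated 1 hr at room temperature with compound and cofactor. IC50s from DMSO stocks diluted 1:50.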

[4] = system: Neurosphere cells (TS603); test: Cellular assay for IDH1m R132H inhibitors, 2-HG by LC-MS in neurosphere cells (TS603); format: cell-based; conditions: 2-HG in media at 48 hours
Method in brief: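 TS603 neurosphere cells in NeuroCult medium were dosed with compound (0.25% DMSO final) at 37 C, 5% CO2. After 48 hours, medium 2-HG was measured by LC-MS. At 72 hours, viability was read by CellTiter-Glo luminescence.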

[5] = biological target: IDH2 R140Q (Homo sapiens (Human), UniProt P48735, R140Q); test: In vitro assay for IDH2m R140Q inhibitors, cofactor depletion assay; format: biochemical; conditions: IDH2 R140Q enzyme
Sequence of IDH2 R140Q (P48735 40-452 R140Q): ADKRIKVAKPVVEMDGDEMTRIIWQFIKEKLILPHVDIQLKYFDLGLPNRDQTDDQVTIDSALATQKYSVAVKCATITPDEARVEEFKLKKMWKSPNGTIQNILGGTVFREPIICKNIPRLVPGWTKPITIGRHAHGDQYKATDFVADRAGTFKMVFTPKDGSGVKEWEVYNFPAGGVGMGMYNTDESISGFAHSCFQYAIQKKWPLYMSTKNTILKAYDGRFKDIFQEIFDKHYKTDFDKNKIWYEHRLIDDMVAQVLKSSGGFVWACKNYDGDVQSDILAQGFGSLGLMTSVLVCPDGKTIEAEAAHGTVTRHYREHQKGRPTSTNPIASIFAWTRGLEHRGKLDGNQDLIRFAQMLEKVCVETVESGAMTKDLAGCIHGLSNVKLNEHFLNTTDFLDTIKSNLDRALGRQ
Method in brief: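 Remaining cofactor measured fluorimetrically: diaphorase/resazurin Stop Mix […], halting the reaction. Before that, mutant enzyme and compound sat 1 h at RT, then substrate mix (4 μM NADPH, 1.6 mM α-KG) was added for 16 h at RT.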

[6] = system: HT1080 cells; test: Cellular assay for IDH1m R132C inhibitors, 2-HG by LC-MS in HT1080 cells; format: cell-based; conditions: Homo sapiens, HT-1080
Experimental: The following describes the experimental procedures that can be used to obtain data on column 5 of Table 4.
Cells (HT1080 or U87MG) are grown in T125 flasks in DMEM containing 10% FBS, 1× penicillin/streptomycin and 500 ug/mL G418 (present in U87MG cells only). They are harvested by trypsin and seeded into 96 well white bottom plates at a density of 5000 cell/well in 100 ul/well in DMEM with 10% FBS. No cells are placed in columns 1 and 12. Cells are incubated overnight at 37° C. in 5% CO2. The next day test compounds are made up at 2× the final concentration and 100 ul are added to each cell well. The final concentration of DMSO is 0.2% and the DMSO control wells are plated in row G. The plates are then placed in the incubator for 48 hours. At 48 hours, 100 ul of media is removed from each well and analyzed by LC-MS for 2-HG concentrations. The cell plate is placed back in the incubator for another 24 hours. At 72 hours post compound addition, 10 mL/plate of Promega Cell Titer Glo reagent is thawed and mixed. The cell plate is removed from the incubator and allowed to equilibrate to room temperature. Then 100 ul of Promega Cell Titer Glo reagent is added to each well of media. The cell plate is then placed on an orbital shaker for 10 minutes and then allowed to sit at room temperature for 20 minutes. The plate is then read for luminescence with an integration time of 500 ms.
HT1080 cells are maintained in RPMI containing 10% FBS, 1× penicillin/streptomycin. […] The next day compounds are prepared in 100% DMSO and then diluted in media for a final concentration of 0.2% DMSO. Media is removed from the cell plates and 200 μL of the compound dilutions are added to each well. […] The cell plates are then allowed to incubate another 24 hours.

Sequence of IDH1-R132H homodimer enzyme (O75874 whole entry R132H): as the sequence (O75874 whole entry R132H) above

IC50 [1] [µM]	IC50 [2] [µM]	IC50 [3] [µM]	IC50 [4] [µM]	IC50 [5] [µM]	IC50 [6] [µM]	Structure (SMILES)
< 0.05	< 0.05	< 0.05	< 0.05	< 0.05	0.05 to 0.1	CC(F)(F)c1nc(-c2nc(NC3CCC(F)(F)C3)nc(NC3CCC(F)(F)C3)n2)cs1 (centres unmarked) [Compound 155]
0.1 to 1	< 0.05	< 0.05	< 0.05	0.05 to 0.1	< 0.05	CC[C@H](Nc1nc(N[C@@H](CC)C(F)(F)F)nc(-c2cccc(Cl)n2)n1)C(F)(F)F [Compound 180]
	0.1 to 1	< 0.05	< 0.05		0.1 to 1	FC1(F)CCC(Nc2nc(NC3CN(c4ccccn4)C3)nc(-c3cccc(C(F)(F)F)n3)n2)C1 (centres unmarked) [Compound 238]
< 0.05	0.05 to 0.1	< 0.05	< 0.05	< 0.05	0.1 to 1	Fc1cc(F)cc(Nc2nc(NC3CC(F)(F)C3)nc(-c3nc(F)ccc3F)n2)c1 [Compound 195]
0.05 to 0.1	< 0.05	< 0.05	< 0.05	0.05 to 0.1	< 0.05	FC1(F)CCCC1Nc1nc(NC2CCCC2(F)F)nc(-c2cccc(Cl)n2)n1 (centres unmarked) [Compound 157]
< 0.05	0.05 to 0.1	< 0.05	< 0.05	< 0.05	0.05 to 0.1	CC(Nc1nc(Nc2ccnc(C3(C#N)CC3)c2)nc(-n2ccc(C(F)(F)F)n2)n1)C(F)(F)F (centres unmarked) [Compound 201]
< 0.05	< 0.05	< 0.05	< 0.05	< 0.05	< 0.05	FC1(F)CC[C@@H](Nc2nc(N[C@@H]3CCC(F)(F)C3)nc(-c3cccc(C(F)(F)F)n3)n2)C1 [Compound 111]
< 0.05	< 0.05	< 0.05	< 0.05	< 0.05	0.1 to 1	N#Cc1cc(Nc2nc(NC3CCC(F)(F)C3)nc(-n3ccc(C(F)(F)F)n3)n2)ccn1 (centres unmarked) [Compound 179]
< 0.05	0.1 to 1	< 0.05	< 0.05	< 0.05	0.05 to 0.1	FC1(F)CCC(Nc2nc(NC3CCC(F)(F)CC3)nc(-c3cccc(Cl)n3)n2)CC1 [Compound 212]
< 0.05	< 0.05	< 0.05	< 0.05	< 0.05	< 0.05	FC1(F)CC(Nc2nc(NC3CC(F)(F)C3)nc(-c3cncc(Cl)n3)n2)C1 [Compound 144]
0.05 to 0.1	0.05 to 0.1	< 0.05	< 0.05	0.05 to 0.1	0.1 to 1	FC1(F)CCC(Nc2nc(Nc3ccnc(-c4ccccc4)c3)nc(-c3cccc(C(F)(F)F)n3)n2)CC1 [Compound 220]
	< 0.05	< 0.05	< 0.05	< 0.05	< 0.05	C[C@@H](Nc1nc(NC(C(F)(F)F)C(F)(F)F)nc(-c2cccc(Cl)n2)n1)C(F)(F)F [Compound 100]
	> 1	0.05 to 0.1	< 0.05		0.1 to 1	FC1(F)CCC(Nc2nc(NC3CN(c4cccnc4)C3)nc(-c3cccc(C(F)(F)F)n3)n2)C1 (centres unmarked) [Compound 243]
	0.1 to 1	0.1 to 1	0.05 to 0.1		0.1 to 1	CC(C)(O)CNc1nc(NC2CCC(F)(F)C2)nc(-c2cccc(C(F)(F)F)n2)n1 (centres unmarked) [Compound 264]
	0.1 to 1	< 0.05	< 0.05		0.1 to 1	O=C1C[C@H](Nc2nc(NC3CCC(F)(F)C3)nc(-c3cccc(C(F)(F)F)n3)n2)CN1c1ccccn1 (some centres unmarked) [Compound 239]

Structure (SMILES)	IC50 [1] [µM]	IC50 [2] [µM]	IC50 [3] [µM]	IC50 [4] [µM]	IC50 [5] [µM]	IC50 [6] [µM]
CC(C)(O)CNc1nc(Nc2cc(F)cc(Cl)c2)nc(-c2cccc(C(C)(F)F)n2)n1 [Compound 236]	< 0.05	0.1 to 1	< 0.05		< 0.05	> 1
